Here are results for one compound from publication PMC12043106, “Insight into antistaphylococcal effect of chlorinated 1-hydroxynaphthalene-2-carboxanilides” (ADMET & DMPK, 2025).

One data set has as its system MRSA 63718. Description: Antistaphylococcal screening, microtitration broth MIC. Format: cell-based, methicillin-resistant S. aureus. The settings on record: Staphylococcus aureus; MRSA 63718, 24 h, 37 °C. The protocol: (§1) In vitro antistaphylococcal activity of the synthesized compounds was evaluated against three clinical isolates of methicillin-resistant S. aureus: clinical isolate of animal origin, MRSA 63718 (Department of Infectious Diseases and Microbiology, Faculty of Veterinary Medicine, University of Veterinary Sciences Brno, Czech Republic), carrying the mecA gene; and MRSA SA 630 and MRSA SA 3202 [54] (National Institute of Public Health, Prague, Czech Republic), both of human origin. […] All isolates were tested for the presence of the mecA gene encoding methicillin resistance. […] Vancomycin-susceptible methicillin-susceptible S. aureus (VS-MSSA) ATCC 29213, obtained from the American Type Culture Collection, was used as the reference and quality control strain. The minimum inhibitory concentrations (MICs) were evaluated by the microtitration broth method according to the CLSI [58, 59] with some modifications. The compounds were dissolved in DMSO (Sigma, St. Louis, MO, USA) to get a concentration […] and diluted in a microtitration plate in a medium Cation Adjusted Mueller-Hinton (CaMH, Oxoid, Basingstoke, UK) to reach the final concentration of 256-0.0625 μg/mL. The plate was inoculated by the tested microorganisms. The final concentration of bacterial cells was 10^5 for bacteria. […] A drug-free control and a sterility control were included. The plates were incubated for 24 h at 37 °C. […] The experiments were repeated three times.

A further data set relates to MRSA SA 630. The data set is described as above. Format: cell-based, methicillin-resistant S. aureus. The settings on record: Staphylococcus aureus; MRSA SA 630, 24 h, 37 °C. The protocol: as §1
Another data set has as its system MRSA SA 3202. Described as above. Format: cell-based, methicillin-resistant S. aureus. The settings on record: Staphylococcus aureus; MRSA SA 3202, 24 h, 37 °C. The procedure:
as §1

Data set [1] in a line: Lipophilicity determination by HPLC (capacity factor k, distribution coefficients DpH). Format: physicochemical. From the text: An HPLC system Agilent 1200 equipped with a DAD detector (Agilent, Santa Clara, CA, USA) was used. A chromatographic column Symmetry® C18 5 μm, 4.6×250 mm, part No. WAT054275 (Waters Corp., Milford, MA, USA) was used. The HPLC separation process was monitored and evaluated with EZChrom Elite software ver. 3.3.2 [53] (Agilent). Isocratic elution by a mixture of MeOH p.a. (72 %) and H2O-HPLC Mili-Q grade (28 %) as a mobile phase was used for the determination of capacity factor k. Isocratic elution by a mixture of MeOH p.a. (72 %) and acetate-buffered saline (pH 7.4 and pH 6.5) (28 %) as a mobile phase was used for the determination of distribution coefficients expressed as D7.4 and D6.5. The total flow of the column was 1.0 mL/min, the injection volume was 20 μL, the column temperature was 40 °C, and the sample temperature was 10 °C. The detection wavelength of 210 nm was chosen. A KI methanolic solution was used for the determination of the dead times (tD). Retention times (tR) were measured in minutes. The capacity factors k were calculated according to the formula k = (tR−tD)/tD, where tR is the retention time of the solute, and tD is the dead time obtained using an unretained analyte. The distribution coefficients DpH were calculated according to the formula DpH = (tR−tD)/tD. Each experiment was repeated three times.

The subject of data set [2] is Human monocytic leukemia THP-1 cells. On the set-up: method as in PMID 24075143. To be noted: tested up to 20 μM, ref [29], read-out: LC50 THP-1; cited from earlier work.
The next data set relates to S. aureus ATCC 29213. Description: Antistaphylococcal screening, microtitration broth MIC. The settings on record: Staphylococcus aureus, ATCC29213; S. aureus ATCC 29213, 24 h, 37 °C. The class given is cell-based, Staphylococcus aureus. The procedure:
as §1

Values after ≈ are worked out from the molar mass of the structure shown.

For orientation: MIC means the lowest concentration found to suppress growth. Lower therefore signals greater potency.

Turning to `O=C(Nc1ccc(Cl)cc1)c1ccc2ccccc2c1O` [Compound 4], the MIC in the data set with MRSA 63718 is over 859 µM; in the data set on MRSA SA 630, 429 µM (≈ 128 µg/mL); in the data set with MRSA SA 3202, 107 µM (≈ 31.9 µg/mL); against S. aureus ATCC 29213, over 859 µM. The log k in data set [1] (MeOH 72 % / H2O 28 %, C18) turned out to be 0.8880. The “log D6.5” value in data set [1] (MeOH 72 % / acetate-buffered saline pH 6.5 28 %) is 0.7640. Further, the “log D7.4” value in data set [1] (MeOH 72 % / acetate-buffered saline pH 7.4 28 %) came out at 0.7501. For the same compound, in data set [2], the CC50 was over 20 µM.
